Results as given in US20080311589A1, “METHOD OF HIGH-THROUGHPUT SCREENING OF MOLECULES AND COMPOUNDS FOR THEIR EFFECTS ON BIOLOGICAL AND CHEMICAL PROCESSES” (priority 1999, published 2008).

Tests used:
[1] = test system: Mv1Lu mink lung epithelial cells; assay: 1536 well BrdU cytoblot; format: cell-based; conditions: 1536-well plate, approximately 500 cells per well
Method: FIG. 3. BrdU incorporation can be efficiently detected with a cytoblot in 1536 well plates in 2 μL droplets. 500 Mv1Lu mink lung epithelial cells were seeded in each well of a white, opaque 1536 well plate (Corning/Costar, Corning, N.Y.). The cells were seeded with or without […] TGF-β in 2 μL of 1% mink medium and allowed to incubate at 37° C. with 5% CO2. After 24 hours, 0.5 μL of 50 μM BrdU in 1% mink medium was added to the indicated wells, for a final concentration of 10 μM BrdU. The plate were incubated at 37° C. with 5% CO2 for an additional 12 hours and then an anti-BrdU cytoblot protocol was performed (see protocols). Wells are magnified as indicated.
Thus, the application of the cytoblot assay to plates containing a higher density of wells was tested. Mink lung cells were seeded into opaque, white 1536-well plates with each well containing approximately 500 cells. Next, the ability of TGF-β to prevent BrdU incorporation was assayed. […] The following protocol provides experimental detail.
The reagents to be tested were prepared in 1536 well plates (Greiner America, Lake Mary, Fla.), with one or more test compounds per well. If the test compounds were attached on solid support (beads), then the beads were distributed into individual wells of 1536 well white plate in acetonitrile. […]

[2] = test system: transiently transfected TGFβ-responsive reporter; assay: transient transfection luciferase assay, p3TPLux; format: cell-based, mink
Method: LUCIFERASE ASSAYS: Our transient transfection luciferase assay was described previously by us (Stockwell et al., Chem Biol 5:385, 1998). Briefly, 100,000 Mv1Lu mink lung epithelial cells were transiently transfected in 12-well dishes with 400 ng p3TPLux or pNFkB-Lux, with or without 50 ng pFC-MEKK, in 300 μL minimal essential medium with non-essential amino acids. The DEAE-dextran/chloroquine/DMSO methods was used for transfection (Stockwell et al., Chem Biol 6:71, 1999). After cell lysis in 120 μL lysis buffer, a Beckman LS 6500 liquid scintillation counter was used in single photon mode to quantitate luminescence. For detection of luciferase activity in 6F cells (including the primary screen), 20,000 6F cells were seeded in 50 μL of 10% mink medium in each well of a white 384-well plate (Nalge Nune International; Naperville, Ill.; cat#164610) using a Multidrop 384 liquid dispenser (Lab Systems; Helsinki, Finland). After 16 hours, medium was removed using a 24 channel wand (V&P Scientific, Inc.; San Diego, Calif.; cat#VP 186L), the cells were washed with 75 μL of 0.2% mink medium (containing 0.2% FBS), and reagents were added in 40 μL of 0.2% medium. For the primary screen, reagents were added by pin transfer using 384 polypropylene pin arrays (Matrix Technologies; Hudson, N.H.). After 24 hours, the cells were cooled on ice and washed twice with 75 μL Hanks Balanced Salt Solution (HBSS; GibcoBRL; cat#24020-117). Then 20 μL lysis buffer (25 mM glycylglycine (Sigma; cat#E-0396), 1% Triton X-100 (Sigma; cat#T-9284), 1 mM dithiothreitol (DTT; Sigma; cat#D-5545), 1 mM phenylmethylsulfonyl fluoride (PMSF; Sigma; cat#P-7626)) was added to each well with a Multidrop. After incubating the cells for five minutes on ice, 20 μL of ATP/luciferin solution was added (25 mM glycylglycine pH 7.8, 15 mM MgSO4, 4 mM EGTA, 6.25 mM K2HPO4 (Sigma; cat#P5504) pH 7.8, 5 mM DTT, 75 μM D-luciferin (Sigma, cat# L-9504, 2 mM ATP (Sigma; cat#A-7699)). Light output was immediately measured with an Analyst 384-well platereader (LJL), with 0.5 second counting time per well.

activation of transiently versus stably transfected TGFβ-responsive reporter [2]: equally effective
Substance: TGF-β: anti-mitogen transforming growth factor β, multifunctional polypeptide signaling factor
BrdU incorporation [1]: effectively prevents BrdU incorporation
